Measured values reported in the supplement of paper PMC4862054.

These molecules were tested on BT-474 (assay: normalised response (% of control), CellTiter-Glo; higher = more viable cells (100 = DMSO, 0 = benzethonium chloride kill control)). Conditions: incubation time: 72 h.
Method in brief: (§1)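 Each value is the plate-normalised signal at one concentration of the series. Breast cancer cell lines (20 µl suspension) were incubated 72 h in 384-well plates with compound at 5 concentrations in 10-fold steps over a compound-specific 10,000-fold range. CellTox Green and then CellTiter-Glo were read, and each plate was scaled to 0.1 % DMSO (100) and a positive kill control (0).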

Compound | normalised response [%]
COc1cc2c(Oc3ccc4[nH]c(C)cc4c3F)ncnc2cc1OCCCN1CCCC1 [Cediranib] (1 nM) | 104
COc1cc2c(Oc3ccc4[nH]c(C)cc4c3F)ncnc2cc1OCCCN1CCCC1 [Cediranib] (0.1 nM) | 113
O=C(O)CCCCC(CCSCc1ccccc1)SCc1ccccc1 (configuration not stated) [CPI-613] (1 nM) | 101
CC[C@H](C)C(=O)O[C@H]1C[C@H](O)C=C2C=C[C@H](C)[C@H](CC[C@@H](O)C[C@@H](O)CC(=O)O)[C@H]21 [Pravastatin] (1 nM) | 99.6
C=CCc1cccc(/C=N/NC(=O)CN2CCN(Cc3ccccc3)CC2)c1O [PAC-1] (1 nM) | 97.7
C[C@H]1C[C@@H]2[C@H]([C@@H](O)C[C@@]3(C)[C@H]2CC[C@]3(O)C(=O)CO)[C@@]2(C)C=CC(=O)C=C12 [Methylprednisolone] (10 nM) | 127
CC[C@@H]1C(=O)N(C)c2cnc(Nc3ccc(C(=O)NC4CCN(C)CC4)cc3OC)nc2N1C1CCCC1 [BI 2536] (1 nM) | 101
COc1cc2c(NC3CCN(C(C)C)CC3)nc(C3CCCCC3)nc2cc1OCCCN1CCCC1 [UNC0638] (10 nM) | 94.2
C=CCc1cccc(/C=N/NC(=O)CN2CCN(Cc3ccccc3)CC2)c1O [PAC-1] (10 nM) | 98.4
O=C(O)CCCCC(CCSCc1ccccc1)SCc1ccccc1 (configuration not stated) [CPI-613] (10 nM) | 105

The molecules below were run on MFM-223 in the same assay as above. Conditions: incubation time: 72 h.
Method in brief: as §1

Compound | normalised response [%]
COc1cc2c(Oc3ccc4[nH]c(C)cc4c3F)ncnc2cc1OCCCN1CCCC1 [Cediranib] (1 nM) | 108
COc1cc2c(Oc3ccc4[nH]c(C)cc4c3F)ncnc2cc1OCCCN1CCCC1 [Cediranib] (0.1 nM) | 103
O=C(O)CCCCC(CCSCc1ccccc1)SCc1ccccc1 (configuration not stated) [CPI-613] (1 nM) | 99.1
CC[C@H](C)C(=O)O[C@H]1C[C@H](O)C=C2C=C[C@H](C)[C@H](CC[C@@H](O)C[C@@H](O)CC(=O)O)[C@H]21 [Pravastatin] (1 nM) | 93.1
C=CCc1cccc(/C=N/NC(=O)CN2CCN(Cc3ccccc3)CC2)c1O [PAC-1] (1 nM) | 102
C[C@H]1C[C@@H]2[C@H]([C@@H](O)C[C@@]3(C)[C@H]2CC[C@]3(O)C(=O)CO)[C@@]2(C)C=CC(=O)C=C12 [Methylprednisolone] (10 nM) | 112
CC[C@@H]1C(=O)N(C)c2cnc(Nc3ccc(C(=O)NC4CCN(C)CC4)cc3OC)nc2N1C1CCCC1 [BI 2536] (1 nM) | 96.5
COc1cc2c(NC3CCN(C(C)C)CC3)nc(C3CCCCC3)nc2cc1OCCCN1CCCC1 [UNC0638] (10 nM) | 88
C=CCc1cccc(/C=N/NC(=O)CN2CCN(Cc3ccccc3)CC2)c1O [PAC-1] (10 nM) | 110
O=C(O)CCCCC(CCSCc1ccccc1)SCc1ccccc1 (configuration not stated) [CPI-613] (10 nM) | 105

Each molecule was assayed on DU-4475 in the same assay as above. Conditions: incubation time: 72 h.
Method in brief: as §1

Compound | normalised response [%]
COc1cc2c(Oc3ccc4[nH]c(C)cc4c3F)ncnc2cc1OCCCN1CCCC1 [Cediranib] (1 nM) | 102
COc1cc2c(Oc3ccc4[nH]c(C)cc4c3F)ncnc2cc1OCCCN1CCCC1 [Cediranib] (0.1 nM) | 99.9
O=C(O)CCCCC(CCSCc1ccccc1)SCc1ccccc1 (configuration not stated) [CPI-613] (1 nM) | 101
CC[C@H](C)C(=O)O[C@H]1C[C@H](O)C=C2C=C[C@H](C)[C@H](CC[C@@H](O)C[C@@H](O)CC(=O)O)[C@H]21 [Pravastatin] (1 nM) | 95.5
C=CCc1cccc(/C=N/NC(=O)CN2CCN(Cc3ccccc3)CC2)c1O [PAC-1] (1 nM) | 100
C[C@H]1C[C@@H]2[C@H]([C@@H](O)C[C@@]3(C)[C@H]2CC[C@]3(O)C(=O)CO)[C@@]2(C)C=CC(=O)C=C12 [Methylprednisolone] (10 nM) | 108
CC[C@@H]1C(=O)N(C)c2cnc(Nc3ccc(C(=O)NC4CCN(C)CC4)cc3OC)nc2N1C1CCCC1 [BI 2536] (1 nM) | 107
COc1cc2c(NC3CCN(C(C)C)CC3)nc(C3CCCCC3)nc2cc1OCCCN1CCCC1 [UNC0638] (10 nM) | 90.4
C=CCc1cccc(/C=N/NC(=O)CN2CCN(Cc3ccccc3)CC2)c1O [PAC-1] (10 nM) | 106
O=C(O)CCCCC(CCSCc1ccccc1)SCc1ccccc1 (configuration not stated) [CPI-613] (10 nM) | 104

Each molecule was assayed on CAL-148 in the same assay as above. Conditions: incubation time: 72 h.
Method in brief: as §1

Compound | normalised response [%]
COc1cc2c(Oc3ccc4[nH]c(C)cc4c3F)ncnc2cc1OCCCN1CCCC1 [Cediranib] (1 nM) | 106
COc1cc2c(Oc3ccc4[nH]c(C)cc4c3F)ncnc2cc1OCCCN1CCCC1 [Cediranib] (0.1 nM) | 109
O=C(O)CCCCC(CCSCc1ccccc1)SCc1ccccc1 (configuration not stated) [CPI-613] (1 nM) | 107
CC[C@H](C)C(=O)O[C@H]1C[C@H](O)C=C2C=C[C@H](C)[C@H](CC[C@@H](O)C[C@@H](O)CC(=O)O)[C@H]21 [Pravastatin] (1 nM) | 87.5
C=CCc1cccc(/C=N/NC(=O)CN2CCN(Cc3ccccc3)CC2)c1O [PAC-1] (1 nM) | 96
C[C@H]1C[C@@H]2[C@H]([C@@H](O)C[C@@]3(C)[C@H]2CC[C@]3(O)C(=O)CO)[C@@]2(C)C=CC(=O)C=C12 [Methylprednisolone] (10 nM) | 111
CC[C@@H]1C(=O)N(C)c2cnc(Nc3ccc(C(=O)NC4CCN(C)CC4)cc3OC)nc2N1C1CCCC1 [BI 2536] (1 nM) | 112
COc1cc2c(NC3CCN(C(C)C)CC3)nc(C3CCCCC3)nc2cc1OCCCN1CCCC1 [UNC0638] (10 nM) | 90.8
C=CCc1cccc(/C=N/NC(=O)CN2CCN(Cc3ccccc3)CC2)c1O [PAC-1] (10 nM) | 107
O=C(O)CCCCC(CCSCc1ccccc1)SCc1ccccc1 (configuration not stated) [CPI-613] (10 nM) | 103

These molecules were tested on MDA-MB-436 in the same assay as above. Conditions: incubation time: 72 h.
Method in brief: as §1

Compound | normalised response [%]
COc1cc2c(Oc3ccc4[nH]c(C)cc4c3F)ncnc2cc1OCCCN1CCCC1 [Cediranib] (1 nM) | 97.8
COc1cc2c(Oc3ccc4[nH]c(C)cc4c3F)ncnc2cc1OCCCN1CCCC1 [Cediranib] (0.1 nM) | 93.3
O=C(O)CCCCC(CCSCc1ccccc1)SCc1ccccc1 (configuration not stated) [CPI-613] (1 nM) | 96.5
CC[C@H](C)C(=O)O[C@H]1C[C@H](O)C=C2C=C[C@H](C)[C@H](CC[C@@H](O)C[C@@H](O)CC(=O)O)[C@H]21 [Pravastatin] (1 nM) | 99.6
C=CCc1cccc(/C=N/NC(=O)CN2CCN(Cc3ccccc3)CC2)c1O [PAC-1] (1 nM) | 97.5
C[C@H]1C[C@@H]2[C@H]([C@@H](O)C[C@@]3(C)[C@H]2CC[C@]3(O)C(=O)CO)[C@@]2(C)C=CC(=O)C=C12 [Methylprednisolone] (10 nM) | 110
CC[C@@H]1C(=O)N(C)c2cnc(Nc3ccc(C(=O)NC4CCN(C)CC4)cc3OC)nc2N1C1CCCC1 [BI 2536] (1 nM) | 100
